From ChEMBL document CHEMBL3217681, “Phosphofructokinase: structural and functional aspects and design of selective inhibitors” (Medchemcomm, 2012)

Target: T1, ATP-dependent 6-phosphofructokinase (Trypanosoma brucei, UniProt O15648)
T1 sequence (O15648 whole entry): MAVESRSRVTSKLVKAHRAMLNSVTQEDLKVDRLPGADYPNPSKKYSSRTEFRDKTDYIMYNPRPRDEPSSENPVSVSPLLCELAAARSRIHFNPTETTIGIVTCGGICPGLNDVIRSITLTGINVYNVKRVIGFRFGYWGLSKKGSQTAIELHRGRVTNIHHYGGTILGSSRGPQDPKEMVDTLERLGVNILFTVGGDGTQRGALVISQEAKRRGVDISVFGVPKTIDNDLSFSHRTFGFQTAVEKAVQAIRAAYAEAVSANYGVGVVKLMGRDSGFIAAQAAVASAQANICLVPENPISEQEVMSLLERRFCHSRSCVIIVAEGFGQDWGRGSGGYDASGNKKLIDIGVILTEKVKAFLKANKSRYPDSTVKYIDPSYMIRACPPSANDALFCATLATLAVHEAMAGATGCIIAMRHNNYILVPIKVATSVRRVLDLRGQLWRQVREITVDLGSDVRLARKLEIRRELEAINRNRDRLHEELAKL
Test: Inhibition of Trypanosoma brucei phosphofructokinase

IC50 [µM]	Structure (SMILES)
900	OC[C@H]1O[C@H](CNc2ccc3ccccc3c2)[C@@H](O)[C@@H]1O
410	OC[C@H]1O[C@H](CNc2ccc(Cl)c(Cl)c2)[C@@H](O)[C@@H]1O
